The text below walks through data of patent publication US8172395B2, “Medical devices having antimicrobial coatings thereon” (priority 2002, dated 2012).

Where no end group is shown, it is not given here.

The test system of data set [1] is L929 mammalian fibroblasts. Briefly: Cytotoxicity, USP Elution Test (MEM elution). The settings on record: 5, 0.5 and 0.05 μg/ml; 25% test solution in medium; L929 cells examined after 48 hours.
Method: Cytotoxicity of Cecropin A melittin hybrid is evaluated according to the USP Elution Test (“Biological Reactivity Tests, In-Vitro: Elution Test”, The United States Pharmacopeial Convention, Inc.). Cell cultures, L929 mammalian fibroblasts (ATCC cell line CCL1, NCTC clone 929), are grown to a near confluent monolayer in 6 well plates (individual wells are 35 mm diameter). […] The serum-supplemented cell culture medium is prepared by mixing 1000 mL Eagle's sterile minimum essential medium (MEM), 100 mL serum, 10 ml L-glutamine solution and antibiotic-antimycotic solution.
In data set [2] the test system is P. aeruginosa (PA) (ATCC# 19660). Briefly: Mouse organ culture model: adherence of P. aeruginosa to scarified mouse cornea. The settings on record: PA pre-incubated 1 h, PBS control 42.4. The method, then: Using the mouse organ culture model, this assay assesses the ability of a compound to inhibit the binding of P. aeruginosa to scarified eyes. Cecropin A melittin hybrid has been tested at three concentrations: 10, 2, and 0.5 μg/ml.
The solutions are tested for their ability to prevent adherence of P. aeruginosa (PA) (ATCC# 19660) to scarified mouse cornea. For these studies 1×10^7 cfu of PA is combined with each of the solutions at each concentration and incubated for 1 h at room temperature. In addition, 1×10^7 cfu of PA are incubated in PBS for 1 h at room temperature as a control. Following this incubation period, the PA are washed twice to remove the peptide solutions. For each washing step, the cultures are centrifuged at 6,000 rpm for 10 min and pellets are resuspended in 1.0 ml of PBS.
Mouse corneas are scarified under a stereoscopic microscope at 40× magnification. The corneal surface of the eyes is incised with three parallel one-mm wounds. The eyes are then enucleated and placed into sterile culture wells containing 2 ml of MEM.
A 5.0 μl aliquot of each bacterial suspension is delivered onto the surface of the cornea. Eyes are routinely incubated in vitro for 1 h at 37° C. at 95% O2 (5% CO2) after bacterial application. Scanning electron microscopy (SEM) is used to quantitate adherent bacteria.
To determine the efficacy of the peptide, the numbers of bacteria at each concentration is compared from 2 separate identical experiments to the PBS control, p≦0.05 is considered significant. There is a slight reduction at 0.5 μg, but significant difference in adherence at 2 and 10 μg from the control. The values for the bacteria adhered at 0.5 μg is 42.4 and 32.6 for the PBS control and the peptide solution respectively. At 2 μg, it is 42.4 and 15.8 for the PBS control and the peptide solution respectively. At 10 μg, it is 42.4 and 5.8 for the PBS control and the peptide solution respectively.

Data set [3] relates to P. aeruginosa GSU #3 (corneal isolate). The format is cell-based, Pseudomnas aeruginosa. The settings on record: 37° C., 24 h; tested 1-20 μg/ml. The method, then: (§1) Two (2) peptides, Cecropin P1 and Cecropin A-melittin hybrid, from American Peptides Company, Inc. are tested against strains of Pseudomnas aeruginosa GSU # 3 (corneal isolate) and # 9027 (a Gram negative organism), Staphylococcus aureus #6538, and Staphylococcus epidermidis # 17917. The first two strains are Gram negative organisms. The last two strains are Gram positive organisms. These organisms are chosen because they are the most common etiological agents causing infection in the eye. The peptides are kept at −70° C. until they are ready to be used. The peptide concentrations tested are 20, 16, 8, 4, 2 and 1 μg/ml in Delbeco's Phosphate Buffered Saline (PBS).
(§2) The bacteria are harvested, washed twice and adjusted to an O.D. of 10^8 cells/ml. Cells then are serially diluted and adjusted to about 5×10^5 cfu/ml. The cells are inoculated into microtiter plates containing serially decreasing peptide concentrations. The inoculum for the bacterial strains are suspended in Mueller Hinton broth, and the final volume in each well is 200 μl. The microtiter plates are incubated at 37° C. for 24 h. The growth is checked as optical density spectrophotometrically in a microtiter plate reader. The O.D. is compared to the blank and to the growth well to determine the MIC. […]

Data set [4] has as its system S. epidermidis #17917. Description: MIC of peptides in Mueller Hinton broth, microtiter plates. It is filed as cell-based, Staphylococcus epidermidis. The settings on record: 37° C., 24 h; tested 1-20 μg/ml. The method, then:
as §1, §2

For data set [5], the system named is S. aureus #6538. Described as above. The format is cell-based, Staphylococcus aureus. As to conditions: 37° C., 24 h; tested 1-20 μg/ml. The method, then: as §1, §2

With `CC[C@H](C)[C@H](N)C(=O)N[C@@H](CC(C)C)C(=O)N1CCC[C@H]1C(=O)N[C@@H](Cc1c[nH]c2ccccc12)C(=O)N[C@@H](CCCCN)C(=O)N[C@@H](Cc1c[nH]c2ccccc12)C(=O)N1CCC[C@H]1C(=O)N[C@@H](Cc1c[nH]c2ccccc12)C(=O)N[C@@H](Cc1c[nH]c2ccccc12)C(=O)N1CCC[C@H]1C(=O)N[C@@H](Cc1c[nH]c2ccccc12)C(=O)N[C@@H](CCCN=C(N)N)C(=O)N[C@@H](CCCN=C(N)N)C(N)=O` [Indolicidin], in data set [1], the “Cytotoxicity (MEM elution test)” value was “non-cytotoxic”.

As to “KWKLFKKIGAVLKVL-NH2 (C-terminus assumed) [Cecropin A Melittin Hybrid]”, the results for the “bacteria adhered (SEM count)” value in data set [2] (0.5 μg/ml peptide), in data set [2] (2 μg/ml peptide) and in data set [2] (10 μg/ml peptide) were 32.6, 15.8 and 5.8, respectively. The “Minimal inhibition concentration, P. aeruginosa GSU #3” value in data set [3] was more than 20 μg/ml^1 μg/mL. The “Cytotoxicity (MEM elution test)” value in data set [1] is “non-cytotoxic”.

As for “SWLSKTAKKLENSAKKRISEGIAIAIQGGPR [Cecropin P1]”, in data set [4], the “Minimal inhibition concentration, S. epidermidis #17917” value is recorded as more than 20 μg/ml^1 μg/mL. The “Minimal inhibition concentration, S. aureus #6538” value in data set [5] is given as more than 20 μg/ml^1 μg/mL.
